Source: patent US12616201B2, “Herbicidal compositions comprising isoxaflutole” (BASF SE, priority 2024, dated 2026)

Key:
[1] = system: Datura stramonium; assay: Post-emergence application in field trials, DATST; type: in vivo
Protocol: (§1) In the examples below, using the method of S. R. Colby (1967) “Calculating synergistic and antagonistic responses of herbicide combinations”, Weeds 15, p. 22ff., the value E, which is expected if the activity of the individual active compounds is only additive, was calculated:
(§2) [formula] • where • X=percent activity using active herbicide A at an application rate a; • Y=percent activity using active herbicide B (i.e. isoxaflutole) at an application rate b; • E=expected activity (in %) by A+B at application rates a+b.
(§3) If the value found experimentally is higher than the value E calculated according to Colby, a synergistic effect is present.
(§4) On field test sites, natural weed infestation or seeded weeds were treated post-emergence of the weeds.
(§5) In the field trials, the weeds were treated as indicated below.
(§6) In the following experiments, the herbicidal activity for the individual herbicidal compositions (solo and mixture applications) was assessed at the indicated days after treatment (DAT). The assessments for the damage on undesired weeds caused by the composition was carried out using a scale from 0 to 100%, compared to the untreated control plants. Here, 0 means no damage and 100 means complete destruction of the plants.
(§7) Herbicide A-1 and isoxaflutole (240 g/l SC) were, together with addition of 0.25 v/v % MSO (methylated sed oil) as adjuvant, formulated in water as distribution medium (water volume 200 l/ha) and sprayed with commercial flat fan nozzles.
(§8) Herbicide A-1, isoxaflutole (240 g/l SC) and saflufenacil (342 g/l) were, together with addition of 0.25 v/v % MSO (methylated sed oil) as adjuvant, formulated in water as distribution medium (water volume 200 l/ha) and sprayed with commercial flat fan nozzles.

[2] = system: Echinochloa crus-galli; assay: Post-emergence application in field trials, ECHCG; type: in vivo
Protocol: as §1, §2, §3, §4, §5, §6, §7
(§9) Herbicide A-1 and isoxaflutole (240 g/l SC, Balance Flexx®) were, together with addition of 0.25 v/v % MSO (methylated sed oil) as adjuvant, formulated in water as distribution medium (water volume 200 l/ha) and sprayed with commercial flat fan nozzles.
as §8
(§10) Herbicide A-1, isoxaflutole (240 g/l SC), saflufenacil (342 g/l) and pyroxasulfone were, together with addition of 0.25 v/v % MSO (methylated sed oil) as adjuvant, formulated in water as distribution medium (water volume 200 l/ha) and sprayed with commercial flat fan nozzles.

[3] = system: Lolium multiflorum; assay: Post-emergence application in field trials, LOLMU; type: in vivo; conditions: LOLMU height 20-25 cm, 12.5 g ai/ha
Protocol: as §1, §2, §3, §4, §5, §6, §10

[4] = system: Zea mays; assay: Post-emergence application in field trials, ZEAMX; type: in vivo
Protocol: as §1, §2, §3, §4, §5, §6, §7, §9, §8, §10

[5] = system: HORVW; assay: Post-emergence application in field trials, HORVW; type: in vivo, Hordeum vulgare; conditions: HORVW height 20-25 cm, 12.5 g ai/ha
Protocol: as §1, §2, §3, §4, §5, §6, §10

[6] = system: Abuthilon theophrasti; assay: Post-emergence application in field trials, ABUTH; type: in vivo; conditions: ABUTH growth stage 14-16, 18 g ai/ha
Protocol: as §1, §2, §3, §4, §5, §6, §9

[7] = system: Amaranthus hybridus; assay: Post-emergence application in field trials, AMACH; type: in vivo; conditions: Table 1.1; AMACH growth stage 35; 21 DAT; 25 g ai/ha
Protocol: as §1, §2, §3, §4, §5
(§11) In the following experiments, the herbicidal activity for the individual herbicidal compositions (solo and mixture applications) was assessed at the indicated days after treatment (DAT). The assessments for the damage on undesired weeds caused by the composition was carried out using a scale from 0 to 100%, compared to the untreated control plants. Here, 0 means no damage and 100 means complete destruction of the plants. […]

[8] = system: Amaranthus retroflexus; assay: Post-emergence application in field trials, AMARE; type: in vivo; conditions: Table 3.4; AMARE growth stage 31-49; 42 DAT; 18 g ai/ha
Protocol: as §1, §2, §3, §4, §5, §6, §9, §10

[9] = system: Spermacoce latifolia; assay: Post-emergence application in field trials, BOILF; type: in vivo; conditions: Table 1.1, BOILF growth stage 40, 21 DAT
Protocol: as §1, §2, §3, §4, §5, §6
Herbicide A-1 and isoxaflutole (75% WG) were, together with addition of 0.5 v/v % MSO (methylated sed oil) as adjuvant, formulated in water as distribution medium (water volume 200 l/ha) and sprayed with commercial flat fan nozzles.

[10] = system: Euphorbia heterophylla; assay: Post-emergence application in field trials, EPHHL; type: in vivo; conditions: Table 1.1; EPHHL growth stage 35; 21 DAT; 50 g ai/ha
Protocol: as §1, §2, §3, §4, §5, §11

[11] = system: Glycine max; assay: Post-emergence application in field trials, GLXMA; type: in vivo; conditions: GLXMA growth stage 13
Protocol: as §1, §2, §3, §4, §5, §6, §7

[12] = system: Hordeum vulgare; assay: Post-emergence application in field trials, HORVX; type: in vivo; conditions: HORVX growth stage 23-29
Protocol: as §1, §2, §3, §4, §5, §6, §9

[13] = system: Ipomoea triloba; assay: Post-emergence application in field trials, IPOTR; type: in vivo; conditions: Table 1.1; IPOTR growth stage 35; 21 DAT; 25 g ai/ha
Protocol: as §1, §2, §3, §4, §5, §11

[14] = system: Setaria verticillata; assay: Post-emergence application in field trials, SETVE; type: in vivo; conditions: SETVE growth stage 21-23, 12.5 g ai/ha
Protocol: as §1, §2, §3, §4, §5, §6, §7, §9

[15] = Table 4.2, DATST growth stage 14-16, height 5-10 cm, 42 DAT, 12.5 g ai/ha
[16] = Table 4.1, ECHCG growth stage 23-30, height 15-20 cm, 7 DAT, 12.5 g ai/ha
[17] = Table 4.1, ZEAMX growth stage 15-16, height 25-30 cm, 7 DAT, 12.5 g ai/ha

CC(C)N(C)S(=O)(=O)NC(=O)c1cc(-n2c(=O)cc(C(F)(F)F)n(C)c2=O)c(F)cc1Cl [C-1, saflufenacil]
% herbicidal activity [1, 15]: 40% | % herbicidal activity [2, 16]: 20% | % herbicidal activity ([2]; Table 5.11, 7 DAT, height 15-20 cm, C-1 12.5 g ai/ha): 20% | % herbicidal activity ([3]; Table 5.1, 7 DAT): 20% | % herbicidal activity ([3]; Table 5.8, 21 DAT): 20% | % herbicidal activity [4, 17]: 0% | % herbicidal activity ([4]; Table 5.11, 7 DAT, height 25-30 cm, C-1 12.5 g ai/ha): 8% | % herbicidal activity ([4]; Table 5.7, ZEAMX height 25-30 cm, 7 DAT, 12.5 g ai/ha): 8% | % herbicidal activity ([4]; Table 5.8, ZEAMX height 25-30 cm, 21 DAT, 12.5 g ai/ha): 2% | % herbicidal activity ([4]; Table 5.9, ZEAMX height 25-30 cm, 28 DAT, 12.5 g ai/ha): 0% | % herbicidal activity ([5]; Table 5.2, 21 DAT): 0% | % herbicidal activity ([5]; Table 5.3, 28 DAT): 0% | % herbicidal activity ([5]; Table 5.8, 21 DAT): 0%

CCOC(=O)COc1ccccc1Oc1nc(-n2c(=O)cc(C(F)(F)F)n(C)c2=O)c(F)cc1Cl [A-1, ethyl 2-[2-[[3-chloro-5-fluoro-6-[3-methyl-2,6-dioxo-4-(trifluoromethyl)pyrimidin-1-yl]-2-pyridyl]oxy]phenoxy]acetate]
% herbicidal activity ([6]; Table 3.1, 7 DAT): 90% | % herbicidal activity ([6]; Table 3.2, 21 DAT): 92% | % herbicidal activity ([6]; Table 3.4, 42 DAT): 90% | % herbicidal activity [7]: 84% | % herbicidal activity [8]: 70% | % herbicidal activity ([9]; 25 g ai/ha): 81% | % herbicidal activity ([9]; 50 g ai/ha): 95% | % herbicidal activity ([1]; Table 2.1, DATST growth stage 14-16, 7 DAT, 18 g ai/ha): 75% | % herbicidal activity ([1]; Table 2.3, DATST growth stage 14-16, 21 DAT, 18 g ai/ha): 70% | % herbicidal activity [1, 15]: 55% | % herbicidal activity ([1]; Table 4.2, DATST growth stage 14-16, height 5-10 cm, 42 DAT, 18 g ai/ha): 70% | % herbicidal activity ([2]; Table 2.1, ECHCG growth stage 23-30, 7 DAT, 12.5 g ai/ha): 30% | % herbicidal activity ([2]; Table 2.1, ECHCG growth stage 23-30, 7 DAT, 18 g ai/ha): 30% | % herbicidal activity ([2]; Table 3.1, ECHCG growth stage 23-30, 7 DAT, 18 g ai/ha): 30% | % herbicidal activity ([2]; Table 3.2, ECHCG growth stage 23-30, 21 DAT, 12.5 g ai/ha): 20% | % herbicidal activity [2, 16]: 30% | % herbicidal activity ([2]; Table 4.1, ECHCG growth stage 23-30, height 15-20 cm, 7 DAT, 18 g ai/ha): 30% | % herbicidal activity ([2]; Table 5.11, 7 DAT, height 15-20 cm, A-1 12.5 g ai/ha): 30% | % herbicidal activity ([2]; Table 5.11, 7 DAT, height 15-20 cm, A-1 18 g ai/ha): 30% | % herbicidal activity [10]: 86% | % herbicidal activity ([11]; Table 2.1, 7 DAT, 18 g ai/ha): 80% | % herbicidal activity ([11]; Table 2.2, 21 DAT, 12.5 g ai/ha): 80% | % herbicidal activity ([11]; Table 2.2, 21 DAT, 18 g ai/ha): 80% | % herbicidal activity ([11]; Table 2.3, 21 DAT, 12.5 g ai/ha): 75% | % herbicidal activity ([12]; Table 3.1, 7 DAT, 12.5 g ai/ha): 70% | % herbicidal activity ([12]; Table 3.1, 7 DAT, 18 g ai/ha): 80% | % herbicidal activity ([12]; Table 3.2, 21 DAT, 12.5 g ai/ha): 90% | % herbicidal activity [13]: 61% | % herbicidal activity ([14]; Table 2.1, 7 DAT): 60% | % herbicidal activity ([14]; Table 3.4, 42 DAT): 30% | % herbicidal activity ([4]; Table 2.1, ZEAMX growth stage 15-16, 7 DAT, 18 g ai/ha): 85% | % herbicidal activity ([4]; Table 3.2, ZEAMX growth stage 15-16, 21 DAT, 18 g ai/ha): 75% | % herbicidal activity ([4]; Table 3.3, ZEAMX growth stage 15-16, 28 DAT, 18 g ai/ha): 60% | % herbicidal activity [4, 17]: 40% | % herbicidal activity ([4]; Table 4.1, ZEAMX growth stage 15-16, height 25-30 cm, 7 DAT, 18 g ai/ha): 50% | % herbicidal activity ([4]; Table 5.10, 7 DAT, height 25-30 cm, A-1 12.5 g ai/ha): 85% | % herbicidal activity ([4]; Table 5.10, 7 DAT, height 25-30 cm, A-1 18 g ai/ha): 85% | % herbicidal activity ([4]; Table 5.11, 7 DAT, height 25-30 cm, A-1 12.5 g ai/ha): 85% | % herbicidal activity ([4]; Table 5.11, 7 DAT, height 25-30 cm, A-1 18 g ai/ha): 85% | % herbicidal activity ([4]; Table 5.12, 7 DAT, height 25-30 cm, A-1 12.5 g ai/ha): 85% | % herbicidal activity ([4]; Table 5.12, 7 DAT, height 25-30 cm, A-1 18 g ai/ha): 85%
